# Measurements: US20210386367A1, “DEVICES AND SYSTEMS FOR GASTROINTESTINAL MICROBIOME DETECTION AND MANIPULATION” (Progenity, Inc., priority 2018, published 2021)
# Experiments:
# [1] = test system: Streptococcus spp. spontaneous mutants; test: organism not typed; type: cell-based
# Experimental: (§1) Select isolates were subcultured onto agar containing drug at the selection concentration, were identified by MALDI, and were frozen for broth microdilution MIC testing as described below.
# (§2) To determine whether colonies growing on drug selection plates had elevated MIC values to the selecting antibiotic, susceptibility testing by broth microdilution was conducted on isolated mutants following methodology recommended by CLSI (1), (2), and (3) “Performance Standards for Antimicrobial Susceptibility Testing; Twenty-Eighth Informational Supplement.,” CLSI document M100-S28, 2018.
# (§3) All wells in columns 2 through 12 of a standard 96-well microdilution plate (Costar 3795) were filled with 150 μL of the appropriate diluent. Then, 300 μL of the test agents were added to the wells of column 1 of the plates at […] the highest final concentration to be tested. Serial two-fold dilutions were made across the rows through column 11 using the Biomek 2000. The wells of column 12 contained no drug and served as the growth control wells. This plate served as the “mother plate” from which selected MIC assay plates or “daughter plates” were made.
# 2 μL of drug solution from each well of a mother plate was added to each corresponding well of the daughter plate in a single step. A standardized inoculum of each aerobic test organism was prepared per CLSI methods to equal a 0.5 McFarland standard, followed by a dilution of 1:20 in MHB II. The plates were then inoculated with 10 μL of the diluted inoculum using the Biomek 2000 from low to high drug concentration, resulting in a final concentration of approximately 5×10^5 CFU/mL. An un-inoculated plate was incubated for the purpose of assessing solubility of the drug in the test media.
# The plates for the aerobic tests were stacked 3-4 high, covered with a sterile lid on the top plate, and incubated aerobically at 35° C. for 18-20 hr. The MIC was recorded as the lowest concentration of drug that inhibited visible growth of the organism.
# [2] = test system: Bacteroides spp. spontaneous mutants; test: Broth microdilution MIC of spontaneous mutants; type: cell-based
# Experimental: as §1, §2, §3
# Daughter plates for anaerobic organisms were transferred to a Bactron II anaerobic chamber (Sheldon Manufacturing Inc., Cornelius, Oreg.) to reduce for 1 hour prior to inoculation. The inoculum for each organism was prepared in the anaerobic chamber and dispensed into sterile disposable reservoirs. Inoculation was completed using a multichannel pipette to transfer 10 μL of the inoculum into each well of the daughter plate. This yielded a final cell concentration in the daughter plates of approximately 1×10^6 CFU/mL.
# [3] = test system: Streptococcus spp. spontaneous mutants; conditions: S. pneumoniae ATCC 49619; CLSI QC range shown in parentheses; cited from earlier work
# Enterococcus faecalis = test: Broth microdilution MIC, 50 clinical isolates; type: cell-based
# Experimental: (§4) Minimal inhibitory concentration (MIC) values were determined by broth microdilution or agar dilution in accordance with guidelines from the Clinical and Laboratory Standards Institute (CLSI; (1) “Methods for Dilution Antimicrobial Susceptibility Tests for Bacteria That Grow Aerobically; Approved Standard; 11th ed.” CLSI standard M07-A11, 2018; (2) “Performance Standards for Antimicrobial Susceptibility Testing; Twenty-Eighth Informational Supplement,” CLSI document M100-S28, 2018; and (3) “Methods for Antimicrobial Susceptibility Testing of Anaerobic Bacteria; Approved Standard—Eighth Edition,” CLSI document M11-A8, 2012).
# (§5) Tested aerobically by broth microdilution: • Escherichia coli, n=50 • Klebsiella spp., n=50 • Pseudomonas aeruginosa, n=50 • Streptococcus spp., n=50 • Staphylococcus aureus, n=50 • Enterococcus faecalis, n=50 • Enterobacter aerogenes, n=50 • Proteus mirabilis, n=50
# (§6) Broth microdilution testing of aerobic bacteria was conducted in cation-adjusted Mueller Hinton broth (MHBII). For testing streptococci, lysed horse blood (LHB) was added to MHBII broth at a final concentration of 3%. Where LHB was used, it was added after filtering.
# (§7) Broth microdilution susceptibility testing in 96-well microplates was conducted in accordance with CLSI methods (1) and (2). Automated liquid handlers were used to conduct serial dilutions and liquid transfers, including the Multidrop 384 (Labsystems, Helsinki, Finland), Biomek 2000, and the Biomek FX (Beckman Coulter, Fullerton, Calif.). All wells in columns 2 through 12 of a standard 96-well microdilution plate (Costar 3795) were filled with 150 μL of the appropriate diluent. Then, 300 μL of the test agents were added to the wells of column 1 of the plates at 100× the highest final concentration to be tested. Serial two-fold dilutions were made across the rows through column 11 using the Biomek 2000. The wells of column 12 contained no drug and served as the growth control wells. This plate served as the “mother plate” from which MIC assay plates or “daughter plates” were made.
# (§8) The daughter plates were loaded with 190 μL per well of the appropriate medium using the Multidrop 384. The daughter plates were created using the Biomek FX which transferred 2 μL of drug solution from each well of a mother plate to each corresponding well of the daughter plate in a single step. A standardized inoculum of each test organism was prepared per CLSI methods (1) to equal a 0.5 McFarland standard, followed by a dilution of 1:20 for aerobes and 1:10 for anaerobes. The plates were then inoculated with 10 μL of the diluted inoculum using the Biomek 2000 from low to high drug concentration, resulting in a final concentration of approximately 5×10^5 CFU/mL per well. An un-inoculated plate was incubated in parallel for each medium for the purpose of assessing solubility of the drug in the test media.
# (§9) Inoculated plates were stacked 3 or 4 high, covered with a sterile lid on the top plate, placed into boxes with CO2 planchets (streptococci) or plastic bags (all other isolates). Plates were incubated at 35° C. for 16-24 hr in ambient air for aerobes or for 42-48 hr in the anaerobic environment of the Bactron II anaerobe chamber (Sheldon Manufacturing Co.; Cornelius, Oreg.). Following incubation, the microplates were removed from the incubator and viewed from the bottom using a plate viewer. The MIC values were read and recorded as the lowest concentration of drug that inhibited visible growth of the organism as per CLSI methods (1) and (2).
# Staphylococcus aureus = test: Broth microdilution MIC, 50 clinical isolates (28 MRSA); type: cell-based
# Experimental: as §4, §5, §6, §7, §8, §9
# [4] = test system: Enterococcus faecalis clinical isolates; test: MIC distribution against clinical isolates; type: cell-based; conditions: 50 E. faecalis isolates
# From the text: (§10) As used herein, “minimum inhibitory concentration” or “MIC” refers to the lowest concentration of an antimicrobial agent, for example, an antimicrobial agent as described herein, required to inhibit the growth of an organism.
# (§11) Many susceptibility testing methods are known in the art and can be used as described herein (see, e.g., Jorgensen and Ferraro (2009) Clinical Infectious Diseases 49:1749-1755; and Maurer et al. (2017) Infectious Disease Reports 9:6839; the entire contents of each of the foregoing are incorporated herein by reference). For example, antimicrobial susceptibility can be determined using conventional culture based methods such as the broth or agar dilution test. In these dilution tests, the bacterial isolate of interest is inoculated onto different media that include serial dilutions of an antimicrobial agent, and incubated under appropriate conditions (e.g., overnight at 37° C.) to allow for growth to occur. Following the incubation period, the media is examined to determine bacterial growth. The lowest concentration of antibiotic that prevents growth represents the minimal inhibitory concentration (MIC). Broth dilution tests can be miniaturized and mechanized allowing for reproducibility and high throughput.
# [5] = test system: Staphylococcus aureus clinical isolates; test: MIC distribution against clinical isolates; type: cell-based; conditions: 50 S. aureus isolates
# From the text: as §10, §11
smiles,measurement,setting,value
CCC[C@@H]1C[C@@H](C(=O)N[C@@H]([C@H]2O[C@H](SC)[C@H](O)[C@@H](O)[C@H]2O)[C@H](C)Cl)N(C)C1 [CLIN],MIC,"[1]; S. agaloctiae ATCC 13813, selected on rifaximin 4X MIC, Colony A",0.03 µg/mL
same,MIC,"[1]; S. agaloctiae ATCC 13813, selected on rifaximin 4X MIC, Colony B",0.03 µg/mL
same,MIC,"[1]; S. agaloctiae ATCC 13813, selected on rifaximin 8X MIC, Colony A",0.03 µg/mL
same,MIC,"[1]; S. agaloctiae ATCC 13813, selected on rifaximin 8X MIC, Colony B",0.03 µg/mL
same,MIC,[1]; S. agaloctiae ATCC 13813 Parent,0.015 µg/mL
same,MIC,"[1]; S. pneumoniae ATCC 49619, selected on rifaximin 4X MIC, Colony A",0.03 µg/mL
same,MIC,"[1]; S. pneumoniae ATCC 49619, selected on rifaximin 4X MIC, Colony B",0.03 µg/mL
same,MIC,"[1]; S. pneumoniae ATCC 49619, selected on rifaximin 8X MIC, Colony A",0.03 µg/mL
same,MIC,"[1]; S. pneumoniae ATCC 49619, selected on rifaximin 8X MIC, Colony B",0.03 µg/mL
same,MIC,[1]; S. pneumoniae ATCC 49619 Parent,0.06 µg/mL
same,MIC,"[1]; S. pyogenes ATCC 49399, selected on rifaximin 4X MIC, Colony A",0.03 µg/mL
same,MIC,"[1]; S. pyogenes ATCC 49399, selected on rifaximin 4X MIC, Colony B",0.03 µg/mL
same,MIC,"[1]; S. pyogenes ATCC 49399, selected on rifaximin 8X MIC, Colony A",0.03 µg/mL
same,MIC,"[1]; S. pyogenes ATCC 49399, selected on rifaximin 8X MIC, Colony B",0.03 µg/mL
same,MIC,[1]; S. pyogenes ATCC 49399 Parent,0.03 µg/mL
same,MIC,"[2]; B. fragilis ATCC 25285, selected on rifaximin 4X MIC, Colony A",0.5 µg/mL
same,MIC,"[2]; B. fragilis ATCC 25285, selected on rifaximin 4X MIC, Colony B",0.5 µg/mL
same,MIC,"[2]; B. fragilis ATCC 25285, selected on rifaximin 8X MIC, Colony A",0.5 µg/mL
same,MIC,"[2]; B. fragilis ATCC 25285, selected on rifaximin 8X MIC, Colony B",0.5 µg/mL
same,MIC,[2]; B. fragilis ATCC 25285 Parent,0.25 µg/mL
same,MIC,"[2]; B. ovatus MMX 3503, selected on rifaximin 4X MIC, Colony A",1 µg/mL
same,MIC,"[2]; B. ovatus MMX 3503, selected on rifaximin 4X MIC, Colony B",1 µg/mL
same,MIC,"[2]; B. ovatus MMX 3503, selected on rifaximin 8X MIC, Colony A",0.5 µg/mL
same,MIC,"[2]; B. ovatus MMX 3503, selected on rifaximin 8X MIC, Colony B",1 µg/mL
same,MIC,[2]; B. ovatus MMX 3503 Parent,0.5 µg/mL
same,MIC,"[2]; B. vulgatus ATCC 8482, selected on ceftriaxone 4X MIC, Colony A",0.25 µg/mL
same,MIC,"[2]; B. vulgatus ATCC 8482, selected on ceftriaxone 4X MIC, Colony B",0.25 µg/mL
same,MIC,"[2]; B. vulgatus ATCC 8482, selected on rifaximin 4X MIC, Colony A",0.25 µg/mL
same,MIC,"[2]; B. vulgatus ATCC 8482, selected on rifaximin 4X MIC, Colony B",0.12 µg/mL
same,MIC,"[2]; B. vulgatus ATCC 8482, selected on rifaximin 8X MIC, Colony A",0.12 µg/mL
same,MIC,"[2]; B. vulgatus ATCC 8482, selected on rifaximin 8X MIC, Colony B",0.25 µg/mL
same,MIC,[2]; B. vulgatus ATCC 8482 Parent (Table 50),0.25 µg/mL
same,MIC,[2]; B. vulgatus ATCC 8482 Parent (Table 54),0.25 µg/mL
same,"MIC, CLSI QC range",[3],(0.03-0.12) μg/mL
"Cc1onc(-c2ccccc2)c1C(=O)N[C@@H]1C(=O)N2[C@@H]1SC(C)(C)[C@@H]2C(=O)O [oxacillin, Oxacillin]",Mode,Enterococcus faecalis,>16 µg/mL
same,MIC50,"Enterococcus faecalis; Enterococcus faecalis, read-out: MIC50",16 µg/mL
same,MIC90,"Enterococcus faecalis; Enterococcus faecalis, read-out: MIC90",> 16 µg/mL
same,% R,Staphylococcus aureus,56%
same,% S,Staphylococcus aureus,44%
same,Mode,Staphylococcus aureus,>16 µg/mL
same,MIC50,"Staphylococcus aureus; Staphylococcus aureus, read-out: MIC50",8 µg/mL
same,MIC90,"Staphylococcus aureus; Staphylococcus aureus, read-out: MIC90",> 16 µg/mL
same,Cumulative percentage of isolates inhibited at MIC,[4]; MIC 2 μg/mL,2.0%
same,Number of test isolates at MIC,[4]; MIC 2 μg/mL,1
same,Cumulative percentage of isolates inhibited at MIC,[4]; MIC 8 μg/mL,16.0%
same,Number of test isolates at MIC,[4]; MIC 8 μg/mL,7
same,Cumulative percentage of isolates inhibited at MIC,[4]; MIC 16 μg/mL,54.0%
same,Number of test isolates at MIC,[4]; MIC 16 μg/mL,19
same,Cumulative percentage of isolates inhibited at MIC,[4]; MIC >16 μg/mL,100.0%
same,Number of test isolates at MIC,[4]; MIC >16 μg/mL,23
same,Cumulative percentage of isolates inhibited at MIC,[5]; MIC 0.5 μg/mL,28.0%
same,Number of test isolates at MIC,[5]; MIC 0.5 μg/mL,10
same,Cumulative percentage of isolates inhibited at MIC,[5]; MIC 1 μg/mL,42.0%
same,Number of test isolates at MIC,[5]; MIC 1 μg/mL,7
same,Cumulative percentage of isolates inhibited at MIC,[5]; MIC 2 μg/mL,44.0%
same,Number of test isolates at MIC,[5]; MIC 2 μg/mL,1
same,Cumulative percentage of isolates inhibited at MIC,[5]; MIC 4 μg/mL,48.0%
same,Number of test isolates at MIC,[5]; MIC 4 μg/mL,2
same,Cumulative percentage of isolates inhibited at MIC,[5]; MIC 8 μg/mL,50.0%
same,Number of test isolates at MIC,[5]; MIC 8 μg/mL,1
same,Cumulative percentage of isolates inhibited at MIC,[5]; MIC >16 μg/mL,100.0%
same,Number of test isolates at MIC,[5]; MIC >16 μg/mL,25
same,Cumulative percentage of isolates inhibited at MIC,[5]; MIC […],8.0%
same,Number of test isolates at MIC,[5]; MIC […],4
